Common to all, as to type: in vivo
The test system of test [1] is Echinochloa crus-galli (ECHCG). The test is described as follows: Pre-emergence biological efficacy, glasshouse pot test. The conditions noted are these: 312 h. An outline of the steps: (§1)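 Glasshouse pot test: spray on soil one day after sowing, 1000 or 250 g/ha. Conditions 24/16 °C day/night, 14 h light, 65% humidity. Plant damage scored 0–100 at 13 days.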
In test [2] the test system is Ipomea hederaceae (IPOHE). Described as above. The settings on record: Ipomoea hederacea, 312 h. The procedure, abridged: as §1
For test [3], the system named is Amaranthus retoflexus (AMARE). Described as above. The settings on record: Amaranthus retroflexus, 312 h. The procedure, abridged:
as §1

For test [4], the system named is Solanum nigrum (SOLNI). The test is described as above. The conditions noted are these: 312 h. The procedure, abridged: as §1
Test [5] has as its system Alopecurus myosuroides (ALOMY). The description is as above. The conditions noted are these: 312 h. The procedure, abridged: as §1
The subject of test [6] is Setaria faberi (SETFA). The description is as above. The settings on record: 312 h. An outline of the steps:
as §1

Test [7] deals with Echinochloa crus-galli (ECHCG). The test is described as follows: Post-emergence biological efficacy, glasshouse pot test. The settings on record: 312 h. An outline of the steps: (§2)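 Pot-grown weeds were sprayed 8 days after sowing with test compound in acetone/water (50:50) with 0.5% Tween 20 at 1000 or 250 g/ha. Glasshouse at 24/16° C day/night, 14 h light, 65% humidity. Damage scored 0-100 (100 = total damage) after 13 days.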

Test [8] concerns Ipomea hederaceae (IPOHE). The description is as above. The conditions noted are these: Ipomoea hederacea, 312 h. An outline of the steps: as §2
The test system of test [9] is Amaranthus retoflexus (AMARE). The description is as above. The settings on record: Amaranthus retroflexus, 312 h. The procedure, abridged: as §2
For test [10], the system named is Solanum nigrum (SOLNI). The test is described as above. The settings on record: 312 h. The procedure, abridged: as §2
The subject of test [11] is Alopecurus myosuroides (ALOMY). Described as above. The settings on record: 312 h. The procedure, abridged:
as §2

For test [12], the system named is Setaria faberi (SETFA). Described as above. The conditions noted are these: 312 h. An outline of the steps: as §2
Setting [13] is: pre-emergence, 1,000 g/ha, evaluated after 13 days (100=total damage; 0=no damage), read-out: Percentage damage ECHCG.
The mark [14] stands for this setting: pre-emergence, 1,000 g/ha, evaluated after 13 days (100=total damage; 0=no damage), read-out: Percentage damage IPOHE.
Setting [15] is: pre-emergence, 1,000 g/ha, evaluated after 13 days (100=total damage; 0=no damage), read-out: Percentage damage AMARE.
Setting [16] is: pre-emergence, 1,000 g/ha, evaluated after 13 days (100=total damage; 0=no damage), read-out: Percentage damage SOLNI.
The mark [17] stands for this setting: pre-emergence, 1,000 g/ha, evaluated after 13 days (100=total damage; 0=no damage), read-out: Percentage damage ALOMY.
Where [18] appears, read: pre-emergence, 1,000 g/ha, evaluated after 13 days (100=total damage; 0=no damage), read-out: Percentage damage SETFA.
[19] abbreviates: post-emergence, 1,000 g/ha, evaluated after 13 days (100=total damage; 0=no damage), read-out: Percentage damage caused to weed species, ECHCG.
Where [20] appears, read: post-emergence, 1,000 g/ha, evaluated after 13 days (100=total damage; 0=no damage), read-out: Percentage damage caused to weed species, IPOHE.
[21] abbreviates: post-emergence, 1,000 g/ha, evaluated after 13 days (100=total damage; 0=no damage), read-out: Percentage damage caused to weed species, AMARE.
Setting [22] is: post-emergence, 1,000 g/ha, evaluated after 13 days (100=total damage; 0=no damage), read-out: Percentage damage caused to weed species, SOLNI.
The mark [23] stands for this setting: post-emergence, 1,000 g/ha, evaluated after 13 days (100=total damage; 0=no damage), read-out: Percentage damage caused to weed species, ALOMY.
Where [24] appears, read: post-emergence, 1,000 g/ha, evaluated after 13 days (100=total damage; 0=no damage), read-out: Percentage damage caused to weed species, SETFA.
The mark [25] stands for this setting: pre-emergence, rate 1,000 g/ha, evaluated after 13 days (100=total damage to plant; 0=no damage), read-out: Percentage damage caused to weed species, ECHCG.
Setting [26] is: pre-emergence, rate 1,000 g/ha, evaluated after 13 days (100=total damage to plant; 0=no damage), read-out: Percentage damage caused to weed species, IPOHE.
The mark [27] stands for this setting: pre-emergence, rate 1,000 g/ha, evaluated after 13 days (100=total damage to plant; 0=no damage), read-out: Percentage damage caused to weed species, AMARE.
Setting [28] is: pre-emergence, rate 1,000 g/ha, evaluated after 13 days (100=total damage to plant; 0=no damage), read-out: Percentage damage caused to weed species, SOLNI.
Where [29] appears, read: pre-emergence, rate 1,000 g/ha, evaluated after 13 days (100=total damage to plant; 0=no damage), read-out: Percentage damage caused to weed species, ALOMY.
[30] abbreviates: pre-emergence, rate 1,000 g/ha, evaluated after 13 days (100=total damage to plant; 0=no damage), read-out: Percentage damage caused to weed species, SETFA.
Setting [31] is: Rate 1,000 g/ha, post-emergence spray, evaluated after 13 days (100=total damage to plant; 0=no damage to plant), read-out: Percentage damage caused to weed species, post-emergence, ECHCG.
[32] abbreviates: Rate 1,000 g/ha, post-emergence spray, evaluated after 13 days (100=total damage to plant; 0=no damage to plant), read-out: Percentage damage caused to weed species, post-emergence, IPOHE.
The mark [33] stands for this setting: Rate 1,000 g/ha, post-emergence spray, evaluated after 13 days (100=total damage to plant; 0=no damage to plant), read-out: Percentage damage caused to weed species, post-emergence, AMARE.
Where [34] appears, read: Rate 1,000 g/ha, post-emergence spray, evaluated after 13 days (100=total damage to plant; 0=no damage to plant), read-out: Percentage damage caused to weed species, post-emergence, SOLNI.
Where [35] appears, read: Rate 1,000 g/ha, post-emergence spray, evaluated after 13 days (100=total damage to plant; 0=no damage to plant), read-out: Percentage damage caused to weed species, post-emergence, ALOMY.
The mark [36] stands for this setting: Rate 1,000 g/ha, post-emergence spray, evaluated after 13 days (100=total damage to plant; 0=no damage to plant), read-out: Percentage damage caused to weed species, post-emergence, SETFA.

As for `COC(=O)c1nc(C2CC2)nc(NCc2cccc(I)c2)c1Cl` [Compound 4-70, 5-Chloro-2-cyclopropyl-4-(3-iodophenylmethyl-amino)-6-methoxy-carbonylpyrimidine], the pest or weed control at 1000 g/ha in test [1] (setting [13]) worked out at 30%; in [2] (setting [14]), 60%; in [3] (setting [15]) it was 40%; in the test with Solanum nigrum (SOLNI) [4] (setting [16]), 30%; in test [5] (setting [17]), 10%; in the test on Setaria faberi (SETFA) [6] (setting [18]) it was 20%. Moreover, the pest or weed control at 1000 g/ha in test [7] (setting [19]) amounted to 70%; in [8] (setting [20]) it was 100%; in test [9] (setting [21]), 100%; in the test on Solanum nigrum (SOLNI) [10] (setting [22]) it was 100%; in test [11] (setting [23]) it was 20%; in the test on Setaria faberi (SETFA) [12] (setting [24]) it was 90%.
As to `COC(=O)c1nc(-c2ccc(C(F)(F)F)c(Cl)c2)nc(NCc2ccco2)c1Cl` [Compound 235-48, 5-Chloro-2-(3-chloro-4-trifluoromethyl-phenyl)-4-(furan-2-ylmethylamino)-6-methoxycarbonyl-pyrimidine], the pest or weed control at 1000 g/ha in test [1] (setting [25]) worked out at 0%; in test [2] (setting [26]), 20%; in test [3] (setting [27]), 10%; with Solanum nigrum (SOLNI) [4] (setting [28]) it was 20%; in test [5] (setting [29]), 0%; in the test with Setaria faberi (SETFA) [6] (setting [30]), 0%. For the same molecule, the pest or weed control at 1000 g/ha in test [7] (setting [31]) amounted to 0%; in test [8] (setting [32]) it was 60%; in [9] (setting [33]), 80%; in the test on Solanum nigrum (SOLNI) [10] (setting [34]) it was 80%; in [11] (setting [35]), 10%; in the test with Setaria faberi (SETFA) [12] (setting [36]) it was 10%.
Take `O=C(O)c1nc(C2CC2)nc(NC2CC2)c1Cl` [Compound 1-1, 5-Chloro-2-cyclopropyl-4-cyclopropylamino-pyrimidine-6-carboxylic acid]: the pest or weed control at 1000 g/ha in test [1] (setting [13]) amounted to 20%; in test [2] (setting [14]), 90%; in test [3] (setting [15]), 100%; in the test on Solanum nigrum (SOLNI) [4] (setting [16]), 90%; in test [5] (setting [17]), 20%; with Setaria faberi (SETFA) [6] (setting [18]), 0%. The pest or weed control at 1000 g/ha in test [7] (setting [19]) amounted to 40%; in test [8] (setting [20]) it was 80%; in test [9] (setting [21]) it was 100%; in the test with Solanum nigrum (SOLNI) [10] (setting [22]), 90%; in test [11] (setting [23]) it was 40%; in the test with Setaria faberi (SETFA) [12] (setting [24]) it was 80%.
Turning to `C=CCN(Cc1cccc(OC)c1OC)c1nc(C2CC2)nc(C(=O)OC)c1Cl` [Compound 151-109, 5-Chloro-2-cyclopropyl-4-[N-(2,3-dimethoxyphenyl-methyl)-N-prop-2-en-1-yl-amino]-6-methoxycarbonyl-pyrimidine], the pest or weed control at 1000 g/ha in [1] (setting [25]) was 0%; in test [2] (setting [26]), 20%; in test [3] (setting [27]), 60%; with Solanum nigrum (SOLNI) [4] (setting [28]) it was 20%; in test [5] (setting [29]), 0%; in the test with Setaria faberi (SETFA) [6] (setting [30]) it was 10%. For the same molecule, the pest or weed control at 1000 g/ha is 0% in test [7] (setting [31]); 30% in test [8] (setting [32]); 30% in test [9] (setting [33]); 30% with Solanum nigrum (SOLNI) [10] (setting [34]); 0% in [11] (setting [35]); 0% in the test with Setaria faberi (SETFA) [12] (setting [36]).
`COC(=O)c1nc(-c2ccc(Cl)c(C#N)c2)nc(NCc2ccco2)c1Cl` [Compound 221-48, 5-Chloro-2-(4-chloro-3-cyanophenyl)-4-(furan-2-yl-methyl-amino)-6-methoxy-carbonylpyrimidine]: the pest or weed control at 1000 g/ha in [1] (setting [25]) was determined as 0%; in [2] (setting [26]), 0%; in test [3] (setting [27]), 60%; in the test on Solanum nigrum (SOLNI) [4] (setting [28]) it was 0%; in test [5] (setting [29]) it was 0%; in the test with Setaria faberi (SETFA) [6] (setting [30]) it was 0%. The pest or weed control at 1000 g/ha in test [7] (setting [31]) came out at 30%; in test [8] (setting [32]), 40%; in test [9] (setting [33]), 80%; with Solanum nigrum (SOLNI) [10] (setting [34]), 80%; in test [11] (setting [35]) it was 10%; in the test on Setaria faberi (SETFA) [12] (setting [36]), 30%.
As to `COC(=O)c1nc(C2CC2)nc(NC2(/C=C/c3cc(C(F)(F)F)cc(C(F)(F)F)c3)CC2)c1Cl` [Compound 4-22, 4-{1-[2-(3,5-Bis-trifluoromethylphen-yl)-ethenyl]-cyclopropylamino}-5-chloro-2-cyclopropyl-6-methoxycarbonyl-pyrimidine], the pest or weed control at 1000 g/ha in test [1] (setting [13]) stood at 20%; in [2] (setting [14]), 80%; in test [3] (setting [15]) it was 70%; in the test with Solanum nigrum (SOLNI) [4] (setting [16]), 20%; in test [5] (setting [17]), 20%; in the test with Setaria faberi (SETFA) [6] (setting [18]) it was 10%. Moreover, the pest or weed control at 1000 g/ha amounted to 40% in test [7] (setting [19]); 100% in test [8] (setting [20]); 100% in test [9] (setting [21]); 100% in the test with Solanum nigrum (SOLNI) [10] (setting [22]); 30% in [11] (setting [23]); 80% in the test on Setaria faberi (SETFA) [12] (setting [24]).
For `COC(=O)c1nc(C2CC2)nc(NC(Cc2ccc(F)cc2)C(=O)OC)c1Cl` (stereo not drawn) [Compound 4-284, 5-Chloro-2-cyclopropyl-4-[2-(4-fluorophenyl)-1-methoxycarbonyl-ethylamino]-6-methoxycarbonyl-pyrimidine], the pest or weed control at 1000 g/ha in test [1] (setting [13]) stood at 30%; in test [2] (setting [14]), 100%; in test [3] (setting [15]), 100%; with Solanum nigrum (SOLNI) [4] (setting [16]), 90%; in test [5] (setting [17]), 20%; in the test with Setaria faberi (SETFA) [6] (setting [18]), 30%. Besides, the pest or weed control at 1000 g/ha is 20% in test [7] (setting [19]); 100% in [8] (setting [20]); 100% in test [9] (setting [21]); 80% with Solanum nigrum (SOLNI) [10] (setting [22]); 30% in test [11] (setting [23]); 40% with Setaria faberi (SETFA) [12] (setting [24]).
